Laboratory results reported in patent US8148388B2, “2,4 (4,6) pyrimidine derivatives” (Janssen Pharmaceutica, N.V., priority 2004, dated 2012).

Tests used:
Assay type in all cases: biochemical
CSK (h) = CSK (h) (Homo sapiens, UniProt P41240); experiment: CSK human kinase assay (glass-fiber filter); details: test concentration of 10^−6M; for inhibition at 1 µM: read-out: C2 score (inhibition of CSK human)
Method: In the glass-fiber filter technology the activity of the kinase of interest is measured using an appropriate substrate that is incubated with the aforementioned kinase protein in the presence of (^33P) radiolabeled ATP. (^33P) Phosphorylation of the substrate is subsequently measured as radioactivity bound on a glass fiber-filter.
All kinases are pre-diluted to a 10× working concentration prior to addition into the assay. The composition of the dilution buffer for each kinase is detailed below.
In a final reaction volume of 25 μl, CSK (h) (5-10 mU) is incubated with 50 mM Tris pH 7.5, 0.1 mM EGTA, 0.1 mM Na3VO4, 0.1% β-mercaptoethanol, 0.1 mg/ml poly(Glu, Tyr) 4:1, 10 mM MnCl2, 10 mM MgAcetate and [γ-^33P-ATP] (specific activity approx. 500 cpm/pmol, concentration as required). The reaction is initiated by the addition of the MgATP mix. After incubation for 40 minutes at room temperature, the reaction is stopped by the addition of 5 μl of a 3% phosphoric acid solution. 10 μl of the reaction is then spotted onto a Filtermat A and washed three times for 5 minutes in 75 mM phosphoric acid and once in methanol prior to drying and scintillation counting.

Flt3 (h) = Flt3 (h) (Homo sapiens, UniProt P36888); experiment: Flt3 human kinase assay (glass-fiber filter); details: test concentration of 10^−6M; for inhibition at 1 µM: read-out: C6 score (inhibition of Flt3 human)
In short: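 Human Flt3 (5-10 mU) with 50 μM peptide substrate in 8 mM MOPS pH 7.0, 0.2 mM EDTA, 10 mM Mg acetate and [γ-33P]ATP (concentration as required), 40 min at room temperature. Reaction stopped with phosphoric acid; substrate 33P incorporation counted on P30 glass-fiber filter.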

GSK3B (h) = GSK3B (h) (Homo sapiens, UniProt P49841); experiment: GSK3β human kinase assay (glass-fiber filter); details: test concentration of 10^−6M; for inhibition at 1 µM: read-out: C8 score (inhibition of GSK3β human)
In short: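 Human GSK3β (5-10 mU) with 20 μM phospho GS2 peptide, [γ-^33P]ATP, 8 mM MOPS pH 7.0, 10 mM Mg acetate; 40 min at room temperature. Stopped with phosphoric acid; substrate phosphorylation read as filter-bound radioactivity by scintillation counting.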

Lyn (h) = Lyn (h) (Homo sapiens, UniProt P07948); experiment: Lyn human kinase assay (glass-fiber filter); details: test concentration of 10^−6M; for inhibition at 1 µM: read-out: C10 score (inhibition of Lyn human)
In short: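 Human Lyn (5-10 mU) phosphorylating poly(Glu,Tyr) 4:1 at 0.1 mg/ml with [γ-33P]ATP (concentration as required) in 50 mM Tris pH 7.5, 10 mM Mg acetate, 40 min at room temperature. Stopped with phosphoric acid; substrate-bound radioactivity counted on glass-fibre filter.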

GSK3B (h), sequence (P49841 whole entry): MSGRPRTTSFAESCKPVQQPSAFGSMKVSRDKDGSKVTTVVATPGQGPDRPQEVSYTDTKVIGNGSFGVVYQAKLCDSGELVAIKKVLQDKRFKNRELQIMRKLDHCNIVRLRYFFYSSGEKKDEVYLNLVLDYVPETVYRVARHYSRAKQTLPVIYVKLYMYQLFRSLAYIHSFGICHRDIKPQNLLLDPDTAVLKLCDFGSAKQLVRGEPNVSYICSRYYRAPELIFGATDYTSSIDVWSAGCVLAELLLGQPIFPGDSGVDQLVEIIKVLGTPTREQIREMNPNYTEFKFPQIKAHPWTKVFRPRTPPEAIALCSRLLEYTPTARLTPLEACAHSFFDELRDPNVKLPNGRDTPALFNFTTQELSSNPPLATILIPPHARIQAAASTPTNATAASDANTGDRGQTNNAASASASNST
Lyn (h), sequence (P07948 whole entry): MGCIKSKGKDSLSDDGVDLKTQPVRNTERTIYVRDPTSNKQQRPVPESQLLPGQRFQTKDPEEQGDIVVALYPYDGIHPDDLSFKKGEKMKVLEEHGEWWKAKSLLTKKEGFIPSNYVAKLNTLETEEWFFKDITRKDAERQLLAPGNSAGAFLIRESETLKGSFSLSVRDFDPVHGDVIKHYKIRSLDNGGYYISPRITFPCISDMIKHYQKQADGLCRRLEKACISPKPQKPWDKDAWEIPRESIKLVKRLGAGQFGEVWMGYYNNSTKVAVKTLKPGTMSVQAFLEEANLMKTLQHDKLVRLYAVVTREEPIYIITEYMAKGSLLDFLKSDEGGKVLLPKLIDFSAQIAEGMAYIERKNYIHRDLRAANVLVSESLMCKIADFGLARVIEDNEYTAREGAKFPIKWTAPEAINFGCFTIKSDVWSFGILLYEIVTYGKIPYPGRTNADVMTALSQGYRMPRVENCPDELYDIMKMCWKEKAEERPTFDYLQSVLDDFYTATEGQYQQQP
CSK (h), sequence (P41240 whole entry): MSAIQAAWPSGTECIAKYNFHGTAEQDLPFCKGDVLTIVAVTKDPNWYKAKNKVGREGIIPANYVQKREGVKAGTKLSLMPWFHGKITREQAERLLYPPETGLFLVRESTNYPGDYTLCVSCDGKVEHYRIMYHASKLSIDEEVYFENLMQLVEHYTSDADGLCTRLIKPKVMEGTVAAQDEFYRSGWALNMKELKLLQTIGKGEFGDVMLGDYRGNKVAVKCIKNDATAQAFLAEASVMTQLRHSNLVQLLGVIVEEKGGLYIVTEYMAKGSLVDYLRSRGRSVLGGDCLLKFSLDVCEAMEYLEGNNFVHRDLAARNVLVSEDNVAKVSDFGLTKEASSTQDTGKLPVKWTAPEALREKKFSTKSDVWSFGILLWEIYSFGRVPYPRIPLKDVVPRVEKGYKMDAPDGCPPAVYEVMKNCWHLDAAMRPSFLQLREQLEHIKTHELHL
Flt3 (h), sequence (P36888 27-993): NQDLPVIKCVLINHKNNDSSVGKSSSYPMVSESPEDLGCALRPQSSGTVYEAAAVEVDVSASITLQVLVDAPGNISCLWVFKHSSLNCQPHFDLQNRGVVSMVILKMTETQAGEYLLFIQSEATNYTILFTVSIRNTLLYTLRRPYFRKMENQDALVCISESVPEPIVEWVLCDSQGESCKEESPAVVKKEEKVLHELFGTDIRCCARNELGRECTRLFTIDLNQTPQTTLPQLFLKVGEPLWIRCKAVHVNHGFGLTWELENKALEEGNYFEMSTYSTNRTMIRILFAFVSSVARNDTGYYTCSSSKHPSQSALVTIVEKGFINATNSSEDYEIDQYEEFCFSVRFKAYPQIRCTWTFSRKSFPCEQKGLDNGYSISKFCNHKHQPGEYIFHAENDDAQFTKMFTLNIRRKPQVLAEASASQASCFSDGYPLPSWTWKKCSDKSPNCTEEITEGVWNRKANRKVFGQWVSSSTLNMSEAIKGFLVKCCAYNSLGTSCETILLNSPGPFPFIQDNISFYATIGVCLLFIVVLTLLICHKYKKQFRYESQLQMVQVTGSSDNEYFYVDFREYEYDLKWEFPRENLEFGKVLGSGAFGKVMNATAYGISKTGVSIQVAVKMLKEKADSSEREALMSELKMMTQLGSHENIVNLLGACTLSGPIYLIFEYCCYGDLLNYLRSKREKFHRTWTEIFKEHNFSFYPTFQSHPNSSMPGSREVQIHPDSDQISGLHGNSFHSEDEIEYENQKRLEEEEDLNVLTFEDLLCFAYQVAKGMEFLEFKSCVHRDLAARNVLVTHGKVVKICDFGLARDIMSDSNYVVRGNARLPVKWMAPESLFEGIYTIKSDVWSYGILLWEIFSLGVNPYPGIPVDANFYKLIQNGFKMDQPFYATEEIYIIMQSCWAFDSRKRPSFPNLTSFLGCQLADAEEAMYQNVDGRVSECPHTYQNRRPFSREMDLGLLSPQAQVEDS

Compound | inhibition at 1 µM (CSK (h)) | inhibition at 1 µM (Flt3 (h)) | inhibition at 1 µM (GSK3B (h)) | inhibition at 1 µM (Lyn (h)) | C2 score (inhibition of CSK human) (CSK (h)) | C8 score (inhibition of GSK3β human) (GSK3B (h)) | C10 score (inhibition of Lyn human) (Lyn (h)) | C6 score (inhibition of Flt3 human) (Flt3 (h))
N#Cc1cnc2nc1Nc1cccc(c1)OCC(=O)NCCCOc1cccc(c1)N2 [Compound 25, 14,21-dioxa-2,4,8,17,28-pentaazatetracyclo[20.3.1.1~3,7~.1~9,13~]octacosa-1(26),3,5,7(28),9,11,13(27),22,24-nonaene-6-carbonitrile, 16-oxo-] | 30 to 60% | > 80% | 30 to 60% | 10 to 30% | – | – | – | –
COc1ccc2cc1OCCCCCCCOc1ccc(Br)cc1Nc1cc(ncn1)N2 [Compound 37, 1H,7H-2,6: 12,8-dimetheno-14H-13,21,1,3,5,7-benzodioxatetraazacyclotricosine, 24-bromo-15,16,17,18,19,20-hexahydro-11-methoxy-] | – | – | – | – | 1 (Score 1=10-30% inhibition) | 1 (Score 1=10-30% inhibition) | 2 (Score 2=30-60% inhibition) | –
CC1(C)NC(=O)Cc2ccc(Cl)cc2Nc2cc(ncn2)Nc2ccc(OCCCN3CCOCC3)c(c2)OCCNC1=O [Compound 106, 1H,7H-6,2:8,12-dimetheno-13,1,3,5,7,16,19-benzoxahexaazacyclotricosine-17,20(14H)-dione, 24-chloro-15,16,18,19,21-pentahydro-18,18-dimethyl-11-[3-(4-morpholinyl)propoxy]-] | 60 to 80% | 10 to 30% | 10 to 30% | > 80% | – | – | – | –
12,8-metheno-6,2-nitrilo-7H-13,1,5,7,16,19-benzoxapentaazacyclodocosine-3-carbonitrile, 23-chloro-1,14,15,16,17,18,19,20-octahydro-11-methoxy-19-methyl-17-oxo- [Compound 32] | – | – | – | – | 1 (Score 1=10-30% inhibition) | 4 (Score 4=>80% inhibition) | 4 (Score 4=>80% inhibition) | 4 (Score 4=>80% inhibition)
N#Cc1cnc2nc1Nc1cccc(c1)OCC(=O)NCCCCOc1cccc(c1)N2 [Compound 26, 14,22-dioxa-2,4,8,17,29-pentaazatetracyclo[21.3.1.1~3,7~.1~9,13~]nonacosa-1(27),3,5,7(29),9,11,13(28),23,25-nonaene-6-carbonitrile, 16-oxo-] | 10 to 30% | 60 to 80% | 10 to 30% | 30 to 60% | – | – | – | –
COc1ccc2cc1OCCCCCCOc1ccc(Br)cc1Nc1cc(ncn1)N2 [Compound 36, 1H,7H-2,6: 12,8-dimetheno-13,20,1,3,5,7-benzodioxatetraazacyclodocosine, 23-bromo-14,15,16,17,18,19-hexahydro-11-methoxy-] | – | – | – | – | 1 (Score 1=10-30% inhibition) | – | 3 (Score 3=60-80% inhibition) | 1 (Score 1=10-30% inhibition)
COc1ccc2cc1OCCCNC(=O)C(C)(C)NC(=O)Cc1ccc(Cl)cc1Nc1cc(ncn1)N2 [Compound 105, 6,2:8,12-dimetheno-7H-13,1,3,5,7,17,20-benzoxahexaazacyclotetracosine-18,21-dione, 25-chloro-1,14,15,16,17,19,20,22-octahydro-11-methoxy-19,19-dimethyl-] | 30 to 60% | – | 10 to 30% | > 80% | – | – | – | –
COc1ccc2cc1OCCNC(=O)CNC(=O)Cc1ccc(Cl)cc1Nc1cc(ncn1)N2 [Compound 103, 1H,7H-6,2:12,8-dimetheno-13,1,3,5,7,16,19-benzoxahexaazacyclotricosine-17,20(14H)-dione, 24-chloro-15,16,18,19,21-pentahydro-11-methoxy-] | 30 to 60% | – | 10 to 30% | > 80% | – | – | – | –
1H,7H-2,6: 12,8-dimetheno-14H-13,19,1,3,5,7-benzodioxatetraazacycloheneicosine, 22-bromo-15,16,17,18-tetrahydro-11-methoxy- [Compound 35] | – | – | – | – | 1 (Score 1=10-30% inhibition) | 1 (Score 1=10-30% inhibition) | 2 (Score 2=30-60% inhibition) | 2 (Score 2=30-60% inhibition)
N#Cc1cnc2nc1Nc1cccc(c1)OCCCNC(=O)COc1cccc(c1)N2 [Compound 28, 14,21-dioxa-2,4,8,18,28-pentaazatetracyclo[20.3.1.1~3,7~.1~9,13~]octacosa-1(26),3,5,7(28),9,11,13(27),22,24-nonaene-6-carbonitrile, 19-oxo-] | 10 to 30% | 60 to 80% | 60 to 80% | 10 to 30% | – | – | – | –
COc1ccc2c(c1)OCCCCCCOc1ccc(Cl)cc1Nc1cc(ncn1)N2 [Compound 34, 11H-6,10-metheno-5H-dibenzo[b,k][1,13,4,6,8,10]dioxatetraazacyclononadecine, 13-chloro-17,18,19,20,21,22-hexahydro-2-methoxy-] | 10 to 30% | 10 to 30% | – | 10 to 30% | – | – | – | –
